# Laboratory results as given in patent EP0354453A2, “Antimicrobial agent for animals” (priority 1988, dated 1990).
# Columns and labels:
# [1] = tested on: Bordetella bronchiaseptica AR3; experiment: in vitro antimicrobial activity (MIC), agar dilution, Part 1; assay type: cell-based; conditions: Bordetella bronchiaseptica AR3, Pig; Mueller Hinton agar, 37°C, 18-24 hours
# Protocol: (§1) Test microorganisms listed in Table 2 were cultured overnight in heart infusion nutrient broth (produced by Eiken Chemical Co., Ltd.). Culture broth containing about 10⁸/ml cells was diluted to a volume of 100 times. An aliquot (about 0.05 ml) of the diluted broth was inoculated onto a Mueller Hinton agar plate (produced by Eiken Chemical Co., Ltd.) to which Compound No. 1 was added in a prescribed concentration. […]
# Escherichia coli 15-4 = experiment: as above; assay type: cell-based; conditions: 154; Escherichia coli 15-4, Cow; Mueller Hinton agar, 37°C, 18-24 hours
# Protocol: as §1
# Escherichia coli 164 = experiment: as above; assay type: cell-based; conditions: Escherichia coli 164, Pig; Mueller Hinton agar, 37°C, 18-24 hours
# Protocol: as §1
# Escherichia coli 442 = experiment: as above; assay type: cell-based; conditions: Escherichia coli 442, Chicken; Mueller Hinton agar, 37°C, 18-24 hours
# Protocol: as §1
# [2] = tested on: Salmonella typhimurium 101; experiment: as above; assay type: cell-based; conditions: Salmonella enterica; Salmonella typhimurium 101, Chicken; Mueller Hinton agar, 37°C, 18-24 hours
# Protocol: as §1
# [3] = tested on: Salmonella typhimurium 595; experiment: as above; assay type: cell-based; conditions: Salmonella enterica; Salmonella typhimurium 595, Pig; Mueller Hinton agar, 37°C, 18-24 hours
# Protocol: as §1
# [4] = tested on: Staphylococcus aureus Aichi 2; experiment: as above; assay type: cell-based; conditions: AICHI2; Staphylococcus aureus Aichi 2, Chicken; Mueller Hinton agar, 37°C, 18-24 hours
# Protocol: as §1
# Escherichia coli = experiment: Effect of oral administration on chicken inoculated with Escherichia coli; assay type: in vivo; conditions: for Chickens developing disease in air sac (naked eye observation) / No. of dead chickens: 5 tested chickens
# Protocol: Escherichia coli cells collected from infected chicken were cultured overnight in a trypticase soy broth (BBL). 0.2 ml of this culture broth was injected into the trachea of chickens of average body weight of 80 g using a 1 ml disposable injection needle. Beginning 2 hours after the inoculation, feeds to which Compound (1) had been added in the amount of 50 ppm, 25 ppm, or 12.5 ppm were freely given to the chickens for 5 days. Following the administration of Compound (1) the chickens were given feed with no addition of drug for 5 days. The surviving chickens were sacrificed and dissected. After examination of the degree of disease in the air sac, Escherichia coli in the trachea, lung, and air sac were quantitatively determined. […]
# Mycoplasma gallisepticum = experiment: Effect of oral administration on chicken inoculated with Mycoplasma gallisepticum; assay type: in vivo; conditions: for Chickens developing disease in air sac (naked eye observation) / No. of dead chickens: 5 tested chickens
# Protocol: Mycoplasma gallisepticum cells collected from chickens having respiratory Mycoplasma infection were cultured for 3 days in a Frey liquid media for Mycoplasma. 0.2 ml of this culture broth was injected into the trachea of chickens of an average body weight of 80 g using a 1 ml disposable injection needle. Beginning from the next day following the inoculation, feeds to which Compound (1) had been added in the amount of 100 ppm, 75 ppm, or 50 ppm were freely given to the chickens for 5 days. Following the administration of Compound (1) the chickens were given feed containing no drug for a further 5 days. The surviving chickens were sacrificed and dissected. After examination of the degree of disease in the air sac, Mycoplasma gallisepticum in the infraorbital sinus, trachea, lung, and air sac were determined. […] TABLE 6 […]
smiles,measurement,setting,value
"CC1COc2c(N3CCN(C)CC3)c(F)cc3c(=O)c(C(=O)O)cn1c23 (racemic) [Ofloxacin, reference compound]",MIC,[1],0.39 µg/mL
same,MIC,Escherichia coli 15-4,0.1 µg/mL
same,MIC,Escherichia coli 164,0.1 µg/mL
same,MIC,Escherichia coli 442,0.05 µg/mL
same,MIC,[2],0.05 µg/mL
same,MIC,[3],0.1 µg/mL
same,MIC,[4],0.2 µg/mL
same,Escherichia coli collected in Air sac,Escherichia coli; 12.5 ppm in feed for 5 days,4.20 Logarithmic number of collected cells per 1 g of tissue
same,Escherichia coli collected in Lung,Escherichia coli; 12.5 ppm in feed for 5 days,5.26 Logarithmic number of collected cells per 1 g of tissue
same,Escherichia coli collected in Trachea,Escherichia coli; 12.5 ppm in feed for 5 days,7.48 Logarithmic number of collected cells per 1 g of tissue
same,Chickens developing disease in air sac (naked eye observation),Escherichia coli; 12.5 ppm in feed for 5 days,3
same,No. of dead chickens,Escherichia coli; 12.5 ppm in feed for 5 days,2
same,Escherichia coli collected in Air sac,Escherichia coli; 25 ppm in feed for 5 days,3.90 Logarithmic number of collected cells per 1 g of tissue
same,Escherichia coli collected in Lung,Escherichia coli; 25 ppm in feed for 5 days,1.86 Logarithmic number of collected cells per 1 g of tissue
same,Escherichia coli collected in Trachea,Escherichia coli; 25 ppm in feed for 5 days,4.58 Logarithmic number of collected cells per 1 g of tissue
same,Chickens developing disease in air sac (naked eye observation),Escherichia coli; 25 ppm in feed for 5 days,3
same,No. of dead chickens,Escherichia coli; 25 ppm in feed for 5 days,1
same,Escherichia coli collected in Air sac,Escherichia coli; 50 ppm in feed for 5 days,0 Logarithmic number of collected cells per 1 g of tissue
same,Escherichia coli collected in Lung,Escherichia coli; 50 ppm in feed for 5 days,0 Logarithmic number of collected cells per 1 g of tissue
same,Escherichia coli collected in Trachea,Escherichia coli; 50 ppm in feed for 5 days,0 Logarithmic number of collected cells per 1 g of tissue
same,Chickens developing disease in air sac (naked eye observation),Escherichia coli; 50 ppm in feed for 5 days,2
same,No. of dead chickens,Escherichia coli; 50 ppm in feed for 5 days,1
same,Mycoplasma gallisepticum collected in Air sac,Mycoplasma gallisepticum; 50 ppm in feed for 5 days,3.70 Logarithmic number of collected cells per 1 g of tissue
same,Mycoplasma gallisepticum collected in Infraorbital sinus,Mycoplasma gallisepticum; 50 ppm in feed for 5 days,1/5
same,Mycoplasma gallisepticum collected in Lung,Mycoplasma gallisepticum; 50 ppm in feed for 5 days,4.78 Logarithmic number of collected cells per 1 g of tissue
same,Mycoplasma gallisepticum collected in Trachea,Mycoplasma gallisepticum; 50 ppm in feed for 5 days,3.64 Logarithmic number of collected cells per 1 g of tissue
same,Chickens developing disease in air sac (naked eye observation),Mycoplasma gallisepticum; 50 ppm in feed for 5 days,1
same,No. of dead chickens,Mycoplasma gallisepticum; 50 ppm in feed for 5 days,0
same,Mycoplasma gallisepticum collected in Air sac,Mycoplasma gallisepticum; 75 ppm in feed for 5 days,0 Logarithmic number of collected cells per 1 g of tissue
same,Mycoplasma gallisepticum collected in Infraorbital sinus,Mycoplasma gallisepticum; 75 ppm in feed for 5 days,0/5
same,Mycoplasma gallisepticum collected in Lung,Mycoplasma gallisepticum; 75 ppm in feed for 5 days,4.00 Logarithmic number of collected cells per 1 g of tissue
same,Mycoplasma gallisepticum collected in Trachea,Mycoplasma gallisepticum; 75 ppm in feed for 5 days,3.82 Logarithmic number of collected cells per 1 g of tissue
same,Chickens developing disease in air sac (naked eye observation),Mycoplasma gallisepticum; 75 ppm in feed for 5 days,0
same,No. of dead chickens,Mycoplasma gallisepticum; 75 ppm in feed for 5 days,0
same,Mycoplasma gallisepticum collected in Air sac,Mycoplasma gallisepticum; 100 ppm in feed for 5 days,0 Logarithmic number of collected cells per 1 g of tissue
same,Mycoplasma gallisepticum collected in Infraorbital sinus,Mycoplasma gallisepticum; 100 ppm in feed for 5 days,0/5
same,Mycoplasma gallisepticum collected in Lung,Mycoplasma gallisepticum; 100 ppm in feed for 5 days,0 Logarithmic number of collected cells per 1 g of tissue
same,Mycoplasma gallisepticum collected in Trachea,Mycoplasma gallisepticum; 100 ppm in feed for 5 days,0 Logarithmic number of collected cells per 1 g of tissue
same,Chickens developing disease in air sac (naked eye observation),Mycoplasma gallisepticum; 100 ppm in feed for 5 days,0
same,No. of dead chickens,Mycoplasma gallisepticum; 100 ppm in feed for 5 days,0
